According to patent US9487489B2, “Halogen-substituted pyrazole derivatives as pest-control agents” (BAYER CROPSCIENCE AKTIENGESELLSCHAFT, priority 2013, dated 2016):

Assays:
[1] = tested on: adult cat fleas (Ctenocephalides felis); experiment: Ctenocephalides felis oral test (CTECFE); type: in vivo; conditions: application rate 100 ppm in citrated cattle blood; after 2 days
Summary of the method: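 About 20 unfed adult cat fleas fed through parafilm membrane on citrated cattle blood containing compound (DMSO stock diluted in blood to test concentration). Kill % scored after 2 days (100% = all fleas dead).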

[2] = tested on: adult castor bean ticks (Ixodes ricinus); experiment: Ixodes ricinus in vitro contact test with adult castor bean ticks (T3); conditions: after 48 h
Method: T3. Ixodes ricinus-in vitro Contact Tests with Adult Castor Bean Ticks
For the coating of the test tubes, initially 9 mg of active compound are dissolved in 1 ml of acetone p.a. and then diluted with acetone p.a. to the desired concentration. By turning and rocking on an orbital shaker (2 h of rocking rotation at 30 rpm), 250 μl of the solution are distributed homogeneously on the internal walls and the floor of a 25 ml test tube. At 900 ppm active compound solution and 44.7 cm^2 internal surface, an area dose of 5 μg/cm^2 is achieved for homogeneous distribution.
After evaporation of the solvent, the tubes are populated with 5-10 adult castor bean ticks (Ixodes ricinus), sealed with a perforated plastic lid and incubated in a horizontal position in the dark at 22° C. and 90% humidity in a climate-controlled cabinet. After 48 h, the efficacy is determined. To this end, the ticks are knocked to the floor of the tube and incubated on a hotplate at 45-50° C. for at most 5 min. Ticks which remain motionless on the floor or move in an uncoordinated manner such that they are not able to deliberately avoid the heat by climbing upwards are considered to be dead or moribund.
An efficacy of 100% means that all ticks were dead or moribund. 0% efficacy means that none of the ticks had been damaged.

[3] = tested on: adult houseflies (Musca domestica); experiment: Musca domestica test (MUSCDO); type: in vivo; conditions: application rate 100 ppm; after 2 days
Summary of the method: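 Compound dissolved in DMSO and diluted with water to the test concentration, applied with sugar solution on a sponge; 10 adult houseflies per vessel. Mortality scored after 2 days as % kill (100% all dead, 0% none).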

[4] = tested on: adult dog ticks (Rhipicephalus sanguineus); experiment: Rhipicephalus sanguineus in vitro contact test with adult brown dog ticks (T2); conditions: after 48 h
Summary of the method: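 Acetone solutions coated onto test tube walls and floor, giving 5 μg/cm^2 at 900 ppm. Five to ten adult ticks held per tube in the dark at room temperature for 48 h, then heated at 45-50° C for up to 5 min; efficacy is the percentage of dead or moribund ticks unable to climb away.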

[5] = tested on: engorged adult female cattle ticks (Boophilus microplus); experiment: Boophilus microplus injection test (BOOPMI Inj); type: in vivo; conditions: application rate 20 μg/animal; injection into abdomen; assessed after 7 days
Summary of the method: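 DMSO solution of compound (1 μl) injected into the abdomen of 5 engorged adult female ticks, which are then held in a climate-controlled room. After 7 days, efficacy is scored from laying of fertile eggs, with unclear eggs kept until larval hatch (~42 days); 100% means no fertile eggs, 0% all fertile.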

[6] = tested on: L1 larvae of the Australian sheep blowfly (Lucilia cuprina); experiment: Lucilia cuprina test (LUCICU); type: in vivo; conditions: application rate 100 ppm; after 2 days
Summary of the method: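 About 20 L1 larvae placed in a vessel with minced horsemeat plus compound (DMSO concentrate diluted with water to the desired concentration). Kill in % scored after 2 days, 100% meaning all larvae dead.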

[7] = tested on: caterpillars of the armyworm (Spodoptera frugiperda); experiment: Spodoptera frugiperda spray test (SPODFR); type: in vivo; conditions: maize leaf discs, after 7 days
Summary of the method: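 Maize leaf discs sprayed with compound in acetone/DMF with alkylaryl polyglycol ether emulsifier (1000 ppm) in water, dried, then infested with armyworm caterpillars. Mortality (%) scored after 7 days; 100% = all caterpillars killed, 0% = none killed.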

[8] = tested on: greenhouse red spider mite (Tetranychus urticae); experiment: Tetranychus urticae spray test, OP-resistant (TETRUR); type: in vivo; conditions: bean leaf discs, after 6 days
Summary of the method: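 Bean leaf discs carrying all stages of OP-resistant Tetranychus urticae were sprayed with compound formulated in acetone/dimethylformamide and diluted in water with 1000 ppm alkylaryl polyglycol ether emulsifier. Mortality (% efficacy, 100% = all mites killed) scored after 6 days.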

[9] = tested on: larvae of the mustard beetle (Phaedon cochleariae); experiment: Phaedon cochleariae spray test (PHAECO); type: in vivo; conditions: Chinese cabbage leaf discs, after 7 days
Summary of the method: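 Compound dissolved in acetone/dimethylformamide with alkylaryl polyglycol ether emulsifier, made up in water containing 1000 ppm emulsifier, then diluted to test concentrations and sprayed against mustard beetle larvae. Efficacy (% larvae killed) scored after 7 days.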

[10] = tested on: adult cat fleas (Ctenocephalides felis); experiment: Ctenocephalides felis in vitro contact test with adult cat fleas (T1); conditions: after 48 h
Summary of the method: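 Test compound was dissolved in acetone p.a. (9 mg per 1 ml) and diluted as needed. 250 μl was spread evenly over the inner walls and floor of a 25 ml test tube by rotating on an orbital shaker for 2 h at 30 rpm. Once the solvent evaporated, 5-10 adult Ctenocephalides felis were added. Tubes were capped with a perforated plastic lid and kept horizontal at room temperature and ambient humidity.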

[11] = tested on: green peach aphid (Myzus persicae); experiment: Myzus persicae spray test (MYZUPE); type: in vivo; conditions: Chinese cabbage leaf discs, after 6 days
Summary of the method: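 Chinese cabbage leaf discs infested with all aphid stages sprayed with compound in acetone/DMF with alkylaryl polyglycol ether emulsifier in water. Efficacy (% aphids killed; 100% all dead, 0% none) scored after 6 days.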

[12] = tested on: bont tick nymphs (Amblyomma hebraeum); conditions: after 48 h
[13] = tested on: cattle ticks (Boophilus microplus) Parkhurst strain, SP-resistant; experiment: Boophilus microplus dip test (BOOPMI Dip); type: in vivo; conditions: application rate 100 ppm, assessed after 7 days
Summary of the method: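 Adult engorged female SP-resistant Parkhurst ticks (8–10) were fully immersed in compound diluted in water from a DMSO solution, then kept in a climate-controlled room. After 7 days, fertile egg-laying was scored, with larval hatching checked at about 42 days; 100% efficacy means no fertile eggs.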

[14] = tested on: Tick nymphs (Amblyomma hebraeum); experiment: Amblyomma hebraeum test (AMBYHE), tick nymphs immersed; type: in vivo; conditions: application rate 100 ppm; immersed one minute; after 42 days
Method: A. Amblyomma hebaraeum Test (AMBYHE)
Solvent: dimethyl sulphoxide
To produce a suitable preparation of active compound, 10 mg of active compound are mixed with 0.5 ml of dimethyl sulfoxide, and the concentrate is diluted with water to the desired concentration.
Tick nymphs (Amblyomma hebraeum) are placed into perforated plastic beakers and immersed in the desired concentration for one minute. The ticks are transferred on filter paper into a Petri dish and stored in a climate-controlled cabinet.
After 42 days, the kill in % is determined. 100% means that all of the ticks have been killed; 0% means that none of the ticks have been killed.

[15] = logP determination by HPLC on a reversed-phase column (C18), EEC Directive 79/831 Annex V.A8; type: physicochemical; conditions: HPLC on reversed-phase column (C18), acetonitrile/water with formic acid, EEC Directive 79/831 Annex V.A8
Summary of the method: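 Retention on a C18 reversed-phase column (Zorbax Eclipse Plus, 1.8 micron) was used, eluting with acetonitrile/water, each containing formic acid. The gradient ran from 10% to 95% acetonitrile over 4.25 min, then held 1.25 min, at 55° C and 2.0 ml/min, with MS detection.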

| Structure (SMILES) | efficacy (kill in %) [1] [%] | efficacy (dead or moribund ticks) ([2]; application rate 1 μg/cm^2) [%] | efficacy (dead or moribund ticks) ([2]; application rate 5 μg/cm^2) [%] | efficacy (kill in %) [3] [%] | efficacy (dead or moribund ticks) ([4]; application rate 1 μg/cm^2) [%] | efficacy (dead or moribund ticks) ([4]; application rate 5 μg/cm^2) [%] | efficacy (laying of fertile eggs) [5] [%] | efficacy (kill in %) [6] [%] | efficacy in % ([7]; application rate 500 g/ha) [%] | efficacy in % ([8]; application rate 500 g/ha) [%] | efficacy in % ([9]; application rate 500 g/ha) [%] | efficacy (dead or moribund fleas) ([10]; application rate 1 μg/cm^2) [%] | efficacy (dead or moribund fleas) ([10]; application rate 5 μg/cm^2) [%] | efficacy in % ([11]; application rate 500 g/ha) [%] | efficacy (dead or moribund ticks) [12] [%] | efficacy (laying of fertile eggs) [13] [%] | efficacy (kill in %) [14] [%] | also measured |
| --- | --- | --- | --- | --- | --- | --- | --- | --- | --- | --- | --- | --- | --- | --- | --- | --- | --- | --- |
| COc1ncc(-c2cnn(-c3c(C(F)(F)F)c(C(F)(F)C(F)(F)F)nn3C)c2)cc1C(=O)NC1CC1 [Ic-86] | 100 | 80 | 100 | 100 | 100 | 100 | 100 | 100 | 100 | 100 | 100 | 100 | 100 | 100 | 100 | 100 | – | – |
| Cc1cc(-c2cnn(-c3c(C(F)(F)F)c(C(F)(F)C(F)(F)F)nn3C)c2)cc(C(=O)NC2(C#N)CC2)c1Cl [Ic-91] | 100 | – | – | 100 | – | 80 | 100 | 100 | 100 | 100 | 100 | 100 | 100 | 100 | – | 100 | 100 | – |
| Cn1nc(C(F)(F)C(F)(F)F)c(C(F)(F)F)c1-n1cc(-c2cc(C(=O)NC3CC3)c(F)cc2Cl)cn1 [Ic-49] | 100 | – | – | 100 | 100 | 100 | 100 | 100 | 100 | 90 | 100 | 100 | 100 | 90 | 100 | 100 | 100 | – |
| Cc1ncc(-c2cnn(-c3c(C(F)(F)F)c(C(F)(F)C(F)(F)F)nn3C)c2)cc1C(=O)NC1(C#N)CC1 [Ic-85] | 100 | – | – | 100 | 100 | 100 | 100 | 100 | 100 | 100 | 100 | 100 | 100 | 100 | – | 100 | 100 | – |
| COc1ncc(-c2cnn(-c3c(C(F)(F)F)c(C(F)(F)C(F)(F)F)nn3C)c2)cc1C(=O)NC1(C#N)CC1 [Ic-87] | 100 | 80 | 100 | 100 | 100 | 100 | 100 | 100 | 100 | 100 | 100 | 100 | 100 | – | 100 | – | – | efficacy in % ([11]; application rate 100 g/ha): 90% |
| Cc1cc(-c2cnn(-c3c(C(F)(F)F)c(C(F)(F)C(F)(F)F)nn3C)c2)cc(C(=O)NC2CC2)c1Cl [Ic-90] | 100 | 100 | 100 | 100 | 100 | 100 | 100 | 100 | 100 | 90 | 100 | 100 | 100 | 100 | 100 | 100 | – | – |
| Cn1nc(C(F)(F)C(F)(F)F)c(C(F)(F)F)c1-n1cc(-c2cc(C(=O)NC3(C#N)CC3)c(F)cc2Cl)cn1 [Ic-48] | 100 | 80 | 100 | 100 | 100 | 100 | 100 | 100 | 100 | – | 100 | 100 | 100 | – | 100 | 80 | – | efficacy in % ([8]; application rate 100 g/ha): 90%; efficacy in % ([11]; application rate 100 g/ha): 90% |
| Cn1nc(C(F)(F)C(F)(F)F)c(C(F)(F)F)c1-n1cc(-c2cccc(C(=O)NC3CC3)c2)cn1 [Ic-18] | 100 | – | 80 | 100 | 100 | 100 | 100 | 100 | – | – | – | 100 | 100 | – | 100 | – | – | efficacy in % ([7]; application rate 100 g/ha): 100%; efficacy in % ([9]; application rate 100 g/ha): 100%; logP [15]: 3.66 |
